Results: ChEMBL document CHEMBL1201861, “Genomics of Drug Sensitity in Cancer screening data, Wellcome Trust Sanger Institute”

Experiments:
Test in all cases: cells
PC-14 = format: functional, cell-based, Homo sapiens; conditions: Homo sapiens, PC-14
Description: SANGER: Inhibition of human PC-14 cell growth in a cell viability assay.

NCI-H1792 = format: functional, cell-based, Homo sapiens; conditions: Homo sapiens, NCI-H1792
Description: SANGER: Inhibition of human NCI-H1792 cell growth in a cell viability assay.

Calu-3 = format: functional, cell-based, Homo sapiens; conditions: Homo sapiens, Calu-3
Description: SANGER: Inhibition of human Calu-3 cell growth in a cell viability assay.

NMC-G1 = format: functional, cell-based, Homo sapiens; conditions: Homo sapiens, NMC-G1
Description: SANGER: Inhibition of human NMC-G1 cell growth in a cell viability assay.

BHT-101 = format: functional, cell-based, Homo sapiens; conditions: Homo sapiens, BHT-101
Description: SANGER: Inhibition of human BHT-101 cell growth in a cell viability assay.

MHH-NB-11 = format: functional, cell-based, Homo sapiens; conditions: Homo sapiens, MHH-NB-11
Description: SANGER: Inhibition of human MHH-NB-11 cell growth in a cell viability assay.

SNU-C2B = format: functional, cell-based, Homo sapiens; conditions: Homo sapiens, SNU-C2B
Description: SANGER: Inhibition of human SNU-C2B cell growth in a cell viability assay.

SF-295 = format: functional, cell-based, Homo sapiens; conditions: Homo sapiens, SF-295; read-out: IC50
Description: SANGER: Inhibition of human SF295 cell growth in a cell viability assay.

T98G = format: functional, cell-based, Homo sapiens; conditions: Homo sapiens, T98G
Description: SANGER: Inhibition of human T98G cell growth in a cell viability assay.

TK-10 = format: functional, cell-based, Homo sapiens; conditions: Homo sapiens, TK-10
Description: SANGER: Inhibition of human TK10 cell growth in a cell viability assay.

LB2241-RCC = format: functional, cell-based, Homo sapiens; conditions: Homo sapiens, LB2241-RCC
Description: SANGER: Inhibition of human LB2241-RCC cell growth in a cell viability assay.

MLMA = format: functional, cell-based, Homo sapiens; conditions: Homo sapiens, MLMA
Description: SANGER: Inhibition of human MLMA cell growth in a cell viability assay.

647-V = format: functional, cell-based, Homo sapiens; conditions: Homo sapiens, 647-V
Description: SANGER: Inhibition of human 647-V cell growth in a cell viability assay.

LN-405 = format: functional, cell-based, Homo sapiens; conditions: Homo sapiens, LN-405
Description: SANGER: Inhibition of human LN-405 cell growth in a cell viability assay.

CAL-39 = format: functional, cell-based, Homo sapiens; conditions: Homo sapiens, CAL-39
Description: SANGER: Inhibition of human CAL-39 cell growth in a cell viability assay.

A 172 = format: functional, cell-based, Homo sapiens; conditions: Homo sapiens, A 172
Description: SANGER: Inhibition of human A172 cell growth in a cell viability assay.

M059J = format: functional, cell-based, Homo sapiens; conditions: Homo sapiens, M059J
Description: SANGER: Inhibition of human M059J cell growth in a cell viability assay.

NCI-H650 = format: functional, cell-based, Homo sapiens; conditions: Homo sapiens, NCI-H650
Description: SANGER: Inhibition of human NCI-H650 cell growth in a cell viability assay.

MPP-89 = format: functional, cell-based, Homo sapiens; conditions: Homo sapiens, MPP-89
Description: SANGER: Inhibition of human MPP-89 cell growth in a cell viability assay.

OE33 = format: functional, cell-based, Homo sapiens; conditions: Homo sapiens, OE33
Description: SANGER: Inhibition of human OE33 cell growth in a cell viability assay.

KARPAS-45 = format: functional, cell-based; conditions: Homo sapiens
Description: SANGER: Inhibition of human KARPAS-45 cell growth in a cell viability assay.

DoTc2-4510 = format: functional, cell-based, Homo sapiens; conditions: Homo sapiens, DoTc2-4510
HT-29 = format: functional, cell-based, Homo sapiens; conditions: Homo sapiens, HT-29
Description: SANGER: Inhibition of human HT-29 cell growth in a cell viability assay.

CTV-1 = format: functional, cell-based; conditions: Homo sapiens
Description: SANGER: Inhibition of human CTV-1 cell growth in a cell viability assay.

NCI-H23 = format: functional, cell-based, Homo sapiens; conditions: Homo sapiens, NCI-H23
Description: SANGER: Inhibition of human NCI-H23 cell growth in a cell viability assay.

Ca-Ski = format: functional, cell-based; conditions: Homo sapiens
Description: SANGER: Inhibition of human Ca-Ski cell growth in a cell viability assay.

MZ1-PC = format: functional, cell-based, Homo sapiens; conditions: Homo sapiens, MZ1-PC
Description: SANGER: Inhibition of human MZ1-PC cell growth in a cell viability assay.

SK-PN-DW = format: functional, cell-based; conditions: Homo sapiens
Description: SANGER: Inhibition of human SK-PN-DW cell growth in a cell viability assay.

NH-12 = format: functional, cell-based, Homo sapiens; conditions: Homo sapiens, NH-12
Description: SANGER: Inhibition of human NH-12 cell growth in a cell viability assay.

NCI-H2452 = format: functional, cell-based, Homo sapiens; conditions: Homo sapiens, NCI-H2452
Description: SANGER: Inhibition of human NCI-H2452 cell growth in a cell viability assay.

COLO-829 = format: functional, cell-based, Homo sapiens; conditions: Homo sapiens, COLO-829
Description: SANGER: Inhibition of human COLO-829 cell growth in a cell viability assay.

8305C = format: functional, cell-based, Homo sapiens; conditions: Homo sapiens, 8305C
Description: SANGER: Inhibition of human 8305C cell growth in a cell viability assay.

TE-1 = format: functional, cell-based, Homo sapiens; conditions: Homo sapiens, TE-1
Description: SANGER: Inhibition of human TE-1 cell growth in a cell viability assay.

SW684 = format: functional, cell-based, Homo sapiens; conditions: Homo sapiens, SW684
Description: SANGER: Inhibition of human SW684 cell growth in a cell viability assay.

K562 = format: functional, cell-based; conditions: Homo sapiens
Description: SANGER: Inhibition of human K-562 cell growth in a cell viability assay.

KE-37 = format: functional, cell-based; conditions: Homo sapiens
Description: SANGER: Inhibition of human KE-37 cell growth in a cell viability assay.

GR-ST = format: functional, cell-based; conditions: Homo sapiens
Description: SANGER: Inhibition of human GR-ST cell growth in a cell viability assay.

TCC-SUP = format: functional, cell-based, Homo sapiens; conditions: Homo sapiens, TCC-SUP
Description: SANGER: Inhibition of human TCCSUP cell growth in a cell viability assay.

HCE-4 = format: functional, cell-based, Homo sapiens; conditions: Homo sapiens, HCE-4
Description: SANGER: Inhibition of human HCE-4 cell growth in a cell viability assay.

A2058 = format: functional, cell-based; conditions: Homo sapiens
Description: SANGER: Inhibition of human A2058 cell growth in a cell viability assay.

SK-LU-1 = format: functional, cell-based, Homo sapiens; conditions: Homo sapiens, SK-LU-1
Description: SANGER: Inhibition of human SK-LU-1 cell growth in a cell viability assay.

CAL-54 = format: functional, cell-based, Homo sapiens; conditions: Homo sapiens, CAL-54
Description: SANGER: Inhibition of human CAL-54 cell growth in a cell viability assay.

HTC-C3 = format: functional, cell-based, Homo sapiens; conditions: Homo sapiens, HTC-C3
Description: SANGER: Inhibition of human HTC-C3 cell growth in a cell viability assay.

KMOE-2 = format: functional, cell-based; conditions: Homo sapiens
Description: SANGER: Inhibition of human KMOE-2 cell growth in a cell viability assay.

SN12C = format: functional, cell-based, Homo sapiens; conditions: Homo sapiens, SN12C
Description: SANGER: Inhibition of human SN12C cell growth in a cell viability assay.

DBTRG-05MG = format: functional, cell-based, Homo sapiens; conditions: Homo sapiens, DBTRG-05MG
Description: SANGER: Inhibition of human DBTRG-05MG cell growth in a cell viability assay.

SW13 = format: functional, cell-based, Homo sapiens; conditions: Homo sapiens, SW13
Description: SANGER: Inhibition of human SW13 cell growth in a cell viability assay.

SW837 = format: functional, cell-based, Homo sapiens; conditions: Homo sapiens, SW837
Description: SANGER: Inhibition of human SW837 cell growth in a cell viability assay.

8505C = format: functional, cell-based, Homo sapiens; conditions: Homo sapiens, 8505C
Description: SANGER: Inhibition of human 8505C cell growth in a cell viability assay.

MC-IXC = format: functional, cell-based, Homo sapiens; conditions: Homo sapiens, MC-IXC
Description: SANGER: Inhibition of human MC-IXC cell growth in a cell viability assay.

KU812 cell line = format: functional, cell-based; conditions: Homo sapiens
Description: SANGER: Inhibition of human KU812 cell growth in a cell viability assay.

## CN(Cc1cnc2nc(N)nc(N)c2n1)c1ccc(C(=O)N[C@@H](CCC(=O)O)C(=O)O)cc1 [METHOTREXATE]
PC-14
  IC50: > 200 nM
NCI-H1792
  IC50: 114 nM
Calu-3
  IC50: > 200 nM
NMC-G1
  IC50: > 200 nM
BHT-101
  IC50: > 200 nM
MHH-NB-11
  IC50: > 200 nM
SNU-C2B
  IC50: 145 nM
SF-295
  IC50: > 200 nM
T98G
  IC50: > 200 nM
TK-10
  IC50: > 200 nM
LB2241-RCC
  IC50: > 200 nM
MLMA
  IC50: 96.5 nM
647-V
  IC50: > 200 nM
LN-405
  IC50: > 200 nM
CAL-39
  IC50: > 200 nM
A 172
  IC50: > 200 nM
M059J
  IC50: > 200 nM
NCI-H650
  IC50: > 200 nM
MPP-89
  IC50: > 200 nM
OE33
  IC50: > 200 nM
KARPAS-45
  IC50: 124 nM
DoTc2-4510
  IC50: > 200 nM
HT-29
  IC50: 153 nM
CTV-1
  IC50: 77.1 nM
NCI-H23
  IC50: > 200 nM
Ca-Ski
  IC50: > 200 nM
MZ1-PC
  IC50: > 200 nM
SK-PN-DW
  IC50: > 200 nM
NH-12
  IC50: > 200 nM
NCI-H2452
  IC50: > 200 nM
COLO-829
  IC50: > 200 nM
8305C
  IC50: 196 nM
TE-1
  IC50: > 200 nM
SW684
  IC50: > 200 nM
K562
  IC50: > 200 nM
KE-37
  IC50: 15.5 nM
GR-ST
  IC50: 36.3 nM
TCC-SUP
  IC50: > 200 nM
HCE-4
  IC50: > 200 nM
A2058
  IC50: > 200 nM
SK-LU-1
  IC50: > 200 nM
CAL-54
  IC50: > 200 nM
HTC-C3
  IC50: > 200 nM
KMOE-2
  IC50: 97.4 nM
SN12C
  IC50: > 200 nM
DBTRG-05MG
  IC50: 171 nM
SW13
  IC50: > 200 nM
SW837
  IC50: > 200 nM
8505C
  IC50: > 200 nM
MC-IXC
  IC50: > 200 nM

## Nc1ccn([C@@H]2O[C@H](CO)[C@@H](O)[C@@H]2O)c(=O)n1 [CYTARABINE]
PC-14
  IC50: 610 nM
NCI-H1792
  IC50: 1420 nM
Calu-3
  IC50: > 2000 nM
NMC-G1
  IC50: 1960 nM
BHT-101
  IC50: 41.8 nM
MHH-NB-11
  IC50: 728 nM
SNU-C2B
  IC50: > 2000 nM
SF-295
  IC50: > 2000 nM
T98G
  IC50: 1720 nM
TK-10
  IC50: 1730 nM
LB2241-RCC
  IC50: 55.3 nM
MLMA
  IC50: 55.5 nM
647-V
  IC50: 1230 nM
LN-405
  IC50: > 2000 nM
CAL-39
  IC50: 998 nM
A 172
  IC50: > 2000 nM
M059J
  IC50: 1820 nM
NCI-H650
  IC50: > 2000 nM
MPP-89
  IC50: 1310 nM
OE33
  IC50: 1800 nM
KARPAS-45
  IC50: > 2000 nM
DoTc2-4510
  IC50: 1600 nM
HT-29
  IC50: > 2000 nM
CTV-1
  IC50: 84.7 nM
NCI-H23
  IC50: 1200 nM
Ca-Ski
  IC50: > 2000 nM
MZ1-PC
  IC50: 1800 nM
SK-PN-DW
  IC50: 416 nM
NH-12
  IC50: 1160 nM
NCI-H2452
  IC50: > 2000 nM
COLO-829
  IC50: 1860 nM
8305C
  IC50: > 2000 nM
TE-1
  IC50: > 2000 nM
SW684
  IC50: > 2000 nM
K562
  IC50: > 2000 nM
KU812 cell line
  IC50: > 2000 nM
KE-37
  IC50: 111 nM
GR-ST
  IC50: 385 nM
TCC-SUP
  IC50: > 2000 nM
HCE-4
  IC50: 277 nM
A2058
  IC50: 687 nM
SK-LU-1
  IC50: 1310 nM
CAL-54
  IC50: 940 nM
HTC-C3
  IC50: 459 nM
KMOE-2
  IC50: 944 nM
SN12C
  IC50: 623 nM
DBTRG-05MG
  IC50: > 2000 nM
SW13
  IC50: 476 nM
SW837
  IC50: > 2000 nM
8505C
  IC50: > 2000 nM
MC-IXC
  IC50: 41.4 nM

## Cn1cc(C2=C(c3ccc(Cl)cc3Cl)C(=O)NC2=O)c2ccccc21 [SB-216763]
PC-14
  IC50: > 10000 nM
NCI-H1792
  IC50: > 10000 nM
Calu-3
  IC50: > 10000 nM
NMC-G1
  IC50: > 10000 nM
BHT-101
  IC50: > 10000 nM
MHH-NB-11
  IC50: > 10000 nM
SNU-C2B
  IC50: > 10000 nM
SF-295
  IC50: > 10000 nM
T98G
  IC50: > 10000 nM
TK-10
  IC50: > 10000 nM
LB2241-RCC
  IC50: 6430 nM
MLMA
  IC50: > 10000 nM
647-V
  IC50: > 10000 nM
LN-405
  IC50: > 10000 nM
CAL-39
  IC50: > 10000 nM
A 172
  IC50: > 10000 nM
M059J
  IC50: > 10000 nM
NCI-H650
  IC50: > 10000 nM
MPP-89
  IC50: > 10000 nM
OE33
  IC50: > 10000 nM
KARPAS-45
  IC50: > 10000 nM
DoTc2-4510
  IC50: > 10000 nM
HT-29
  IC50: > 10000 nM
CTV-1
  IC50: > 10000 nM
NCI-H23
  IC50: > 10000 nM
Ca-Ski
  IC50: > 10000 nM
MZ1-PC
  IC50: > 10000 nM
SK-PN-DW
  IC50: > 10000 nM
NH-12
  IC50: > 10000 nM
NCI-H2452
  IC50: > 10000 nM
COLO-829
  IC50: > 10000 nM
8305C
  IC50: > 10000 nM
TE-1
  IC50: > 10000 nM
SW684
  IC50: > 10000 nM
K562
  IC50: > 10000 nM
KE-37
  IC50: > 10000 nM
GR-ST
  IC50: > 10000 nM
TCC-SUP
  IC50: > 10000 nM
HCE-4
  IC50: > 10000 nM
A2058
  IC50: > 10000 nM
SK-LU-1
  IC50: > 10000 nM
CAL-54
  IC50: > 10000 nM
HTC-C3
  IC50: > 10000 nM
KMOE-2
  IC50: > 10000 nM
SN12C
  IC50: > 10000 nM
DBTRG-05MG
  IC50: > 10000 nM
SW13
  IC50: > 10000 nM
SW837
  IC50: > 10000 nM
8505C
  IC50: > 10000 nM
MC-IXC
  IC50: > 10000 nM
